The values below come from US20240150366A1, “4-AMINOQUINAZOLINE COMPOUND” (Astellas Pharma Inc., priority 2021, published 2024).

Test [1] concerns the target KRAS G12D/SOS/c-Raf complex (Homo sapiens (Human), UniProt P01116, G12D). The test is described as follows: KRAS G12D/SOS/c-Raf complex formation inhibitory activity (TR-FRET). It is filed as biochemical. To be noted: human recombinant proteins, 1 hour at room temperature, read-out: IC50, KRAS G12D/SOS/c-Raf complex formation inhibition. The procedure:
Using human recombinant KRAS G12D, SOS and c-Raf proteins, the inhibitory activity of subject compounds on the complex formation of the proteins was examined by a time-resolved fluorescence resonance energy transfer (TR-FRET) method.
Biotinylated AviTag-KRAS G12D (amino acid region of 1-185, GDP) (2.5 μL; 400 nM) and subject compounds dissolved in an assay buffer (50 mM HEPES, 150 mM NaCl, 5 mM MgCl2, 0.05% Tween 20, pH 7.0) were added to a 384-well plate (from Corning) in a liquid volume of 2.5 μL at 40,000 nM to 40 nM. Son of Sevenless (SOS) (amino acid region of 564-1049, 2.5 μL; 1.3 μM) and c-Raf (amino acid region of 51-131) GST (2.5 μL; 130 nM) containing GTP (from Sigma-Aldrich; 2 μM) were added to the plate, and the plate was allowed to stand for 1 hour at room temperature. Then, a mixture liquid (10 μL) of LANCE Ulight-anti-GST (from PerkinElmer; 120 nM) and LANCE Eu-W1024 labeled Streptoavidin (from PerkinElmer; 100 ng/mL) was added, and the 620-nm and 665-nm fluorescence intensities were measured using EnVision 2104 (from PerkinElmer) under the conditions of an excitation wavelength of 337 nm. After standardizing the values with the fluorescence intensity at a reference wavelength of 620 nm, the 50% inhibitory concentrations (IC50) were calculated by Sigmoid-Emax model nonlinear regression analysis with the signaling value in treatment with the solvent taken as 0% inhibition and with the signaling value without the addition of GTP taken as 100% inhibition.

Test [2] deals with KRAS G12D mutant-positive pancreatic cancer line AsPC-1. As to the kind of experiment: Non-anchorage-dependent cell growth inhibitory activity in AsPC-1 (spheroid 3D culture). It is filed as cell-based. To be noted: Homo sapiens, ASPC1, 144 h, read-out: IC50, non-anchorage-dependent cell growth inhibition. The procedure: The non-anchorage-dependent cell growth inhibitory activities of subject compounds were evaluated by spheroid 3D cell culture.
AsPC-1 cells were seeded at 36 μL/well on a low-cell-adhesive round bottom 384-well plate (Prime Surface: from Sumitomo Bakelite) to give 5×10^2 cells per well. The cell culture was performed under the same conditions as in the Test Example 2.
The next day, the subject compounds (6 points having final concentrations in the range of 10 μM to 3.0 nM) and DMSO, which was the solvent for the subject compounds, as a negative control were diluted 100-fold with a fresh medium and were each added at 4 μL per well. After culturing in the presence of 5% CO2 at 37° C. for six days, CellTiter Glo 2.0 (from Promega) was added at 20 μL per well. After stirring with a plate mixer (from FINEPCR) at normal temperature for an hour, the luminescent signals were measured with ARVO X3 (from PerkinElmer).
With the signaling value in treatment with DMSO taken as 0% inhibition and with the signaling value in the medium alone without cells taken as 100% inhibition, the 50% inhibition values (IC50) were calculated by Sigmoid-Emax model nonlinear regression analysis.

Test [3] relates to ERK phosphorylation (Thr202/Tyr204) in KRAS G12D mutant-positive pancreatic cancer line AsPC-1. As to the kind of experiment: ERK phosphorylation inhibitory activity in AsPC-1 (cell ELISA). It is filed as cell-based. To be noted: Homo sapiens, ASPC1, 2 h, read-out: IC50, ERK phosphorylation inhibition. The protocol:
The ERK phosphorylation inhibitory activities of subject compounds were evaluated by measuring phosphorylation of the 202th threonine (Thr202) and the 204th tyrosine (Tyr204) of ERK located downstream of the KRAS signal by cell ELISA.
AsPC-1 cells (ATCC, CRL-1682) were seeded at 36 μL/well on a 384-well plate (from Greiner bio-one) to give 2.0×10^4 cells per well. As for the cell culture conditions, RPMI-1640 medium (from Sigma-Aldrich) containing 10% fetal bovine serum (from GE Life Sciences) was used in the presence of 5% CO2 at 37° C.
The next day, the subject compounds (6 points having final concentrations in the range of 10 μM to 0.3 nM), trametinib (MEK inhibitor) of a final concentration of 1 μM as a positive control and DMSO, which was the solvent for the subject compounds, as a negative control were diluted 100-fold with a fresh medium and were each added at 4 μL per well, followed by culturing for 2 hours. After culturing, a 30% glyoxal solution (40% glyoxal [from Wako] was diluted with Phosphate Buffered Saline [PBS; from Wako) was quickly added at 30 μL per well, and the plate was allowed to stand for an hour at room temperature to thus immobilize the cells. Then, the plate was centrifuged (110× g, seven seconds, hereinafter centrifugation was performed under the same conditions unless otherwise specified) to remove the supernatant, and 0.1% Triton X-100 (from Amersham Biosciences)—containing PBS was added at 20 μL per well. After allowing the plate to stand for 10 minutes at room temperature, the supernatant was removed by centrifugation, and the same operation was further repeated. Next, 0.5% sodium dodecyl sulfate (SDS; from Invitrogen)-containing PBS was added at 20 μL per well. The plate was allowed to stand at room temperature for 30 minutes and was then centrifuged to remove the supernatant. Subsequently, a blocking solution (Intercept Blocking Buffer; from LI-COR Biosciences) was added at 20 μL per well, and the plate was allowed to stand for an hour at room temperature. The supernatant was removed by centrifugation, and an ERK (Thr202/Tyr204) phosphorylation antibody (Phospho-p44/42 MAPK (Erk 1/2) (Thr202/Tyr204) (D13.14.4E) XP Rabbit mAb; from Cell Signaling Technology) diluted 2,500-fold with the blocking solution was added at 10 μL per well as a primary antibody. The plate was allowed to stand at 4° C. overnight.
The next day, the plate was centrifuged to remove the supernatant, and 0.05% Tween-20-containing PBS (from Thermo Scientific; 20× PBS Tween-20 was diluted 20-fold with ion exchange water and used) was added at 20 μL per well. The supernatant was removed by centrifugation to thus wash each well. The washing was performed three times in total. After washing, an IRDye 800CW Goat anti-Rabbit IgG (from LI-COR Biosciences) diluted 1,000-fold with the blocking solution was added at 10 μL per well as a secondary antibody, and the plate was allowed to stand for an hour at room temperature. The plate was centrifuged to remove the supernatant, and each well was washed three times with 0.05% Tween-20-containing PBS in the same manner as after the primary antibody reaction. Centrifugation after the third washing was performed at 171×g for 17 seconds. After removing the supernatant, the plate was dried as it was with air at room temperature for three hours or more, and the 800-nm fluorescent signals were measured with Aerius (from LI-COR Biosciences).
With the signaling value at the time of addition of DMSO taken as 0% inhibition and with the signaling value at the time of addition of […] trametinib taken as 100% inhibition, the 50% inhibition values (IC50) were calculated by Sigmoid-Emax model nonlinear regression analysis.
(In general: In an ELISA, binding on a coated surface is turned into a signal by an enzyme label.)

Sequence of KRAS G12D/SOS/c-Raf complex (P01116 other isoform, or with tags, fused parts or gaps G12D): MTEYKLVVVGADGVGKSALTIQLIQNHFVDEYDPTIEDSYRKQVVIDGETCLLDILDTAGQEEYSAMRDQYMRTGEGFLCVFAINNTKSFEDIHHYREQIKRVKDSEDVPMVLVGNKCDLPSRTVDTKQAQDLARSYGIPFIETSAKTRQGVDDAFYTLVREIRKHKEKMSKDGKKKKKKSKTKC

`CCN1CCN(Cc2ccc(COc3c(-c4c(C)c(F)cc5[nH]ncc45)c(C4CC4)cc4c(N5C[C@@H]6C[C@H]5CN6)nc(OC5CCOCC5)nc34)cc2)C(=O)C1` [Example 4, 1-({4-[({6-cyclopropyl-4-[(1S,4S)-2,5-diazabicyclo[2.2.1]heptan-2-yl]-7-(6-fluoro-5-methyl-1H-indazol-4-yl)-2-[(oxan-4-yl)oxy]quinazolin-8-yl}oxy)methyl]phenyl}methyl)-4-ethylpiperazin-2-one]: the results for the IC50 in test [1], in test [2] and in test [3] were 100 nM, 99 nM and 37 nM, respectively.

As to `Cc1c(F)cc2[nH]ncc2c1-c1c(C2CC2)cc2c(N3C[C@@H]4C[C@H]3CN4)nc(OC3CCOCC3)nc2c1OCc1ccc(CN2CCN(C3CCOCC3)CC2=O)cc1` [Example 5, 1-({4-[({6-cyclopropyl-4-[(1S,4S)-2,5-diazabicyclo[2.2.1]heptan-2-yl]-7-(6-fluoro-5-methyl-1H-indazol-4-yl)-2-[(oxan-4-yl)oxy]quinazolin-8-yl}oxy)methyl]phenyl}methyl)-4-(oxan-4-yl)piperazin-2-one], the IC50 in test [1] is 107 nM; in test [2], 83 nM; in test [3] it was 32 nM.

In the case of `Cc1c(F)cc2[nH]ncc2c1-c1c(C2CC2)cc2c(N3C[C@@H]4C[C@H]3CN4)nc(OC3CCOCC3)nc2c1OCc1ccc(CN2CCN(C(C)C)CC2=O)cc1` [Example 6, 1-({4-[({6-cyclopropyl-4-[(1S,4S)-2,5-diazabicyclo[2.2.1]heptan-2-yl]-7-(6-fluoro-5-methyl-1H-indazol-4-yl)-2-[(oxan-4-yl)oxy]quinazolin-8-yl}oxy)methyl]phenyl}methyl)-4-(propan-2-yl)piperazin-2-one], the results for the IC50 in test [1], in test [2] and in test [3] were 91 nM, 92 nM and 36 nM, respectively.

Regarding `Cc1c(F)cc2[nH]ncc2c1-c1c(C2CC2)cc2c(N3C[C@@H]4C[C@H]3CN4)nc(O[C@@H]3CCCc4cnccc43)nc2c1OCc1ccc(Cn2c(=O)n(C)c3ncccc32)cc1` [Example 8, 1-[(4-{[(6-cyclopropyl-4-[(1S,4S)-2,5-diazabicyclo[2.2.1]heptan-2-yl]-7-(6-fluoro-5-methyl-1H-indazol-4-yl)-2-{[(5R)-5,6,7,8-tetrahydroisoquinolin-5-yl]oxy}quinazolin-8-yl)oxy]methyl}phenyl)methyl]-3-methyl-1,3-dihydro-2H-imidazo[4,5-b]pyridin-2-one], the IC50 was 40 nM in test [1], 73 nM in test [2] and 30 nM in test [3].

With `Cc1cc(C)n2cc(Cc3ccc(COc4c(-c5c(C)c(F)cc6[nH]ncc56)c(C5CC5)cc5c(N6C[C@@H]7C[C@H]6CN7)nc(OC6CCOCC6)nc45)cc3)nc2n1` [Example 9, 6-cyclopropyl-4-[(1S,4S)-2,5-diazabicyclo[2.2.1]heptan-2-yl]-8-({4-[(5,7-dimethylimidazo[1,2-a]pyrimidin-2-yl)methyl]phenyl}methoxy)-7-(6-fluoro-5-methyl-1H-indazol-4-yl)-2-[(oxan-4-yl)oxy]quinazoline], the IC50 in test [1] amounted to 44 nM; in test [2], 84 nM; in test [3], 44 nM.

As to `Cc1c(F)cc2[nH]ncc2c1-c1c(C2CC2)cc2c(N3C[C@@H]4C[C@H]3CN4)nc(OCc3cccnc3C(C)C)nc2c1OCc1ccc(Cn2c(=O)n(C)c3ncccc32)cc1` [Example 10, 1-[(4-{[(6-cyclopropyl-4-[(1S,4S)-2,5-diazabicyclo[2.2.1]heptan-2-yl]-7-(6-fluoro-5-methyl-1H-indazol-4-yl)-2-{[2-(propan-2-yl)pyridin-3-yl]methoxy}quinazolin-8-yl)oxy]methyl}phenyl)methyl]-3-methyl-1,3-dihydro-2H-imidazo[4,5-b]pyridin-2-one], the IC50 in test [1] is 33 nM; in test [2] it was 77 nM; in test [3] it was 41 nM.

For `Cc1c(F)cc2[nH]ncc2c1-c1c(C2CC2)cc2c(N3C[C@@H]4C[C@H]3CN4)nc(OC3CCOCC3)nc2c1OCc1ccc(Cn2nc(-c3cnccn3)nc2C)cc1` [Example 11, 6-cyclopropyl-4-[(1S,4S)-2,5-diazabicyclo[2.2.1]heptan-2-yl]-7-(6-fluoro-5-methyl-1H-indazol-4-yl)-8-[(4-{[5-methyl-3-(pyrazin-2-yl)-1H-1,2,4-triazol-1-yl]methyl}phenyl)methoxy]-2-[(oxan-4-yl)oxy]quinazoline], the IC50 worked out at 110 nM in test [1], 133 nM in test [2] and 81 nM in test [3].

On to `Cc1c(F)cc2[nH]ncc2c1-c1c(C2CC2)cc2c(N3C[C@@H]4C[C@H]3CN4)nc(OC3CCOCC3)nc2c1OCc1ccc(Cn2nc3n(c2=O)CCOC3)cc1` [Example 12, 2-({4-[({6-cyclopropyl-4-[(1S,4S)-2,5-diazabicyclo[2.2.1]heptan-2-yl]-7-(6-fluoro-5-methyl-1H-indazol-4-yl)-2-[(oxan-4-yl)oxy]quinazolin-8-yl}oxy)methyl]phenyl}methyl)-2,5,6,8-tetrahydro-3H-[1,2,4]triazolo[3,4-c][1,4]oxazin-3-one], for which the results for the IC50 in test [1], in test [2] and in test [3] were 74 nM, 153 nM and 72 nM, respectively.

For the compound `Cc1c(F)cc2[nH]ncc2c1-c1c(C2CC2)cc2c(N3C[C@@H]4C[C@H]3CN4)nc(OC3CCOCC3)nc2c1OCc1ccc(Cc2nc3ncccn3n2)cc1` [Example 13, 6-cyclopropyl-4-[(1S,4S)-2,5-diazabicyclo[2.2.1]heptan-2-yl]-7-(6-fluoro-5-methyl-1H-indazol-4-yl)-2-[(oxan-4-yl)oxy]-8-({4-[([1,2,4]triazolo[1,5-a]pyrimidin-2-yl)methyl]phenyl}methoxy)quinazoline], the IC50 in test [1] was 77 nM; in test [2] it was 130 nM; in test [3], 78 nM.
